Results taken from patent US20200009088A1, “COMPOSITIONS AND METHODS FOR TREATING ANDROGEN-INDEPENDENT CANCER” (The Regents of the University of California, priority 2017, published 2020).
Entries after “also recorded” stand apart in the source; their conditions may differ. One block for each molecule: values may come before it.

Legend:
C4-2B MDVR cells = test: Cell growth assay (cell numbers), C4-2B MDVR; assay type: cell-based; details: for cell growth: increasing doses of niclosamide/analogs, FIG. 6; for synergy with abiraterone in inhibiting cell growth / synergy with enzalutamide in inhibiting cell growth: C4-2BMDVR, FIG. 10; for synergy with abiraterone in inhibiting cell growth: analog 0.25 μM + abiraterone 5 μM; for synergy with enzalutamide in inhibiting cell growth: analog 0.25 μM + enzalutamide 20 μM
CWR22Rv1 cells [1] = test: Cell growth assay (cell numbers), CWR22Rv1; assay type: cell-based; details: for cell growth: CWR22Rv1, 48 hours, increasing doses of niclosamide/analogs, FIG. 6
CWR22Rv1 cells [2] = test: Cell growth assay (cell numbers), CWR22Rv1; assay type: cell-based; details: for cell growth, combination with bicalutamide: CWR22Rv1, analog 0.25 μM + bicalutamide 20 μM, 0, 3, 5 days; for cell growth, combination with enzalutamide: CWR22Rv1, analog 0.25 μM + enzalutamide 20 μM, 0, 3, 5 days; for cell growth, combination with enzalutamide / cell growth, combination with abiraterone: FIGS. 9, 11; for cell growth, niclosamide analog alone: CWR22Rv1, analog 0.25 μM, 0, 3, 5 days, FIGS. 9, 11, 12; for synergy with abiraterone in inhibiting cell growth: CWR22Rv1, analog 0.25 μM + abiraterone 5 μM; for cell growth, combination with abiraterone: CWR22Rv1, analog 0.25 μM + abiraterone 5 μM, 0, 3, 5 days; for synergy with enzalutamide in inhibiting cell growth: CWR22Rv1, analog 0.25 μM + enzalutamide 20 μM
Protocol: DMSO treatment was used as a negative control. Total cell numbers were counted at 0, 3, and 5 days.
DMSO treatment was used as a negative control. Total cell numbers were counted at 0, 3, and 5 days. […]
The cell growth was determined at 3,5 days. […] The cell growth was determined at 3,5 days.

AR = test: Western blot of AR expression in CWR22Rv1 cell lysates; assay type: cell-based; details: CWR22Rv1 cells, FIG. 2A
Protocol: (§1) “AR-Variants” represents a combination of all forms of AR.
(§2) The effects of the synthetic small molecule modulators on AR and AR variant expression were determined. CWR22Ry1 prostate cancer cells were treated with different compounds. Protein lysates were analyzed for AR and AR variant expression.

AR-V7 [3] = molecular target: T1, AR-V7 (Homo sapiens, UniProt P10275); test: Western blot of AR-V7 expression in CWR22Rv1 cell lysates; assay type: cell-based; design: endogenous in cells; host or cells: CWR22Rv1 prostate cancer cells (also grown as xenograft tumours); details: CWR22Rv1 cells, FIG. 2A
T1 sequence (P10275 1-644 isoform P10275-3): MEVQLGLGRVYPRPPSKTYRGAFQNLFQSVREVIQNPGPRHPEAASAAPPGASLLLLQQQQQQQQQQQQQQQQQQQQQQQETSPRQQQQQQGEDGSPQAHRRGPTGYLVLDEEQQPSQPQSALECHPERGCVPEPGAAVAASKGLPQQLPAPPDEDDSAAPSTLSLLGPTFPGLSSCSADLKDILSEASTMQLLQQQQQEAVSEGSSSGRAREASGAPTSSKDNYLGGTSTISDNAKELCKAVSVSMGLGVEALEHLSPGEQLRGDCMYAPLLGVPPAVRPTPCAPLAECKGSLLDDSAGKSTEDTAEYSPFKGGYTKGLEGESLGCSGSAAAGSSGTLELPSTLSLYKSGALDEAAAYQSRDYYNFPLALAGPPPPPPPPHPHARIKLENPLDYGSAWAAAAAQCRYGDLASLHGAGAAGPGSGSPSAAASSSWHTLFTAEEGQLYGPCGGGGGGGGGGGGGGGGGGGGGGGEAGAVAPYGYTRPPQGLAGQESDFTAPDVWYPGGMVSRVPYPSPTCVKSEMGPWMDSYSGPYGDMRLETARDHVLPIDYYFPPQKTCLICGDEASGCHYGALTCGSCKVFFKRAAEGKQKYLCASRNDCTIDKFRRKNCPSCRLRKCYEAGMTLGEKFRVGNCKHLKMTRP
Protocol: as §1, §2

C4-2-V7 cells = test: Cell growth assay (cell numbers), C4-2-V7; assay type: cell-based; details: C4-2-V7, 0.5 μM + enzalutamide, 48 hours, FIG. 7D
PSA = PSA protein expression by ELISA in C4-2 cells overexpressing AR-V7; assay type: cell-based; details: C4-2-V7 cells, FIG. 3
Protocol: PSA protein expression was determined by ELISA assay. * denotes p<0.05.

C4-2B AbiR cells = test: Cell growth assay (cell numbers), C4-2B AbiR; assay type: cell-based; details: 0.5 μM + enzalutamide, 48 hours, FIG. 7C
C4-2BMDVR cells = test: ELISA cell death (apoptosis) assay; assay type: cell-based; details: FIG. 8
Protocol: To further examine the anti-cancer effects of these compounds, an ELISA cell death assay was performed.

AR-V7 [4] = molecular target: T1, AR-V7; test: PSA-luc reporter in LNCaP cells co-transfected with AR-V7; details: LNCaP cells co-transfected with AR-V7, FIG. 4
Protocol: The luciferase activity was then determined. * denotes p<0.05.
In addition, the effects on AR transcriptional activity were determined using PSA-luc as a reporter. LNCaP cells were cotransfected with PSA-luc together with or without AR-V7, and treated with the compounds.

Compound: CNC(=O)c1ccc(N2C(=S)N(c3cnc(C#N)c(C(F)(F)F)c3)C(=O)C23CCC3)cc1F [ARN509, reference compound]
cell growth (C4-2B MDVR cells; C4-2B MDVR, 48 hours): did not inhibit
cell growth (CWR22Rv1 cells [1]): did not inhibit

Compound: O=C(Nc1ccc([N+](=O)[O-])cc1Cl)c1cccc(Cl)c1 [Compound 1]
cell growth, combination with bicalutamide (CWR22Rv1 cells [2]; FIG. 12): not able to inhibit
cell growth, combination with enzalutamide (CWR22Rv1 cells [2]): nor the was the combination of these compounds with enzalutamide or abiraterone able to inhibit
cell growth, niclosamide analog alone (CWR22Rv1 cells [2]): Neither of Compounds 1 or 34 alone were able to inhibit; also recorded: None of Compounds 1, 7, 30, 31, or 34 alone were able to inhibit
AR expression (AR): no effect
synergy with abiraterone in inhibiting cell growth (C4-2B MDVR cells): neither Compound 1 nor Compound 34 were able to synergize
synergy with enzalutamide in inhibiting cell growth (C4-2B MDVR cells): neither Compound 1 nor Compound 34 were able to synergize
AR-V7 (AR variant) expression (AR-V7 [3]): no effect

Compound: O=C(Nc1ccc([N+](=O)[O-])cc1Cl)c1ccccc1O [Compound 2]
synergy with abiraterone in inhibiting cell growth (CWR22Rv1 cells [2]): but not Compounds 2 and 17, were able to synergize
cell growth, combination with abiraterone (CWR22Rv1 cells [2]): nor was a combination of either of these compounds with enzalutamide or abiraterone able to inhibit
cell growth, combination with enzalutamide (CWR22Rv1 cells [2]): nor was a combination of either of these compounds with enzalutamide or abiraterone able to inhibit
cell growth, niclosamide analog alone (CWR22Rv1 cells [2]): neither Compounds 2 nor Compound 17 alone were able to inhibit
AR expression (AR): no effect
AR-V7 (AR variant) expression (AR-V7 [3]): no effect

Compound: O=C(Nc1cc(C(F)(F)F)cc(C(F)(F)F)c1)c1cc(Cl)ccc1O [Compound 5]
AR expression (AR): inhibited
AR-V7 (AR variant) expression (AR-V7 [3]): inhibited

Compound: O=C(Nc1ccccc1Cl)c1cc(Cl)ccc1O [Compound 8]
AR expression (AR): no effect
AR-V7 (AR variant) expression (AR-V7 [3]): no effect

Compound: O=C(Nc1cc(C(F)(F)F)cc(C(F)(F)F)c1)c1cc(Cl)ccc1O [Compound 11]
synergy with abiraterone in inhibiting cell growth (CWR22Rv1 cells [2]): able to synergize
cell growth, combination with abiraterone (CWR22Rv1 cells [2]): able to significantly inhibit
synergy with enzalutamide in inhibiting cell growth (CWR22Rv1 cells [2]): able to synergize
cell growth, combination with enzalutamide (CWR22Rv1 cells [2]): able to significantly inhibit

Compound: O=C(Nc1cc(F)cc(F)c1)c1cc(Cl)ccc1O [Compound 17]
synergy with abiraterone in inhibiting cell growth (CWR22Rv1 cells [2]): but not Compounds 2 and 17, were able to synergize
cell growth, combination with abiraterone (CWR22Rv1 cells [2]): nor was a combination of either of these compounds with enzalutamide or abiraterone able to inhibit
cell growth, combination with enzalutamide (CWR22Rv1 cells [2]): nor was a combination of either of these compounds with enzalutamide or abiraterone able to inhibit
cell growth, niclosamide analog alone (CWR22Rv1 cells [2]): neither Compounds 2 nor Compound 17 alone were able to inhibit
AR expression (AR): no effect
AR-V7 (AR variant) expression (AR-V7 [3]): no effect

Compound: O=C(O)COc1ccc(Cl)cc1C(=O)Nc1ccc([N+](=O)[O-])cc1Cl [Compound 29]
AR expression (AR): no effect
AR-V7 (AR variant) expression (AR-V7 [3]): no effect

AR-V7 (AR variant) expression (AR-V7 [3]): inhibited
AR-V7 mediated PSA-luc activity (AR-V7 [4]): inhibited
Compound: CCC(=O)Oc1ccc(Cl)cc1C(=O)Nc1ccc([N+](=O)[O-])cc1Cl [Compound 30]
synergy with abiraterone in inhibiting cell growth (CWR22Rv1 cells [2]): able to synergize
cell growth, combination with abiraterone (CWR22Rv1 cells [2]): significantly inhibited
cell growth, combination with bicalutamide (CWR22Rv1 cells [2]; FIG. 12): able to significantly inhibit
synergy with bicalutamide in inhibiting cell growth (CWR22Rv1 cells [2]; CWR22Rv1, analog 0.25 μM + bicalutamide 20 μM, FIG. 12): able to synergize
synergy with enzalutamide in inhibiting cell growth (CWR22Rv1 cells [2]): able to synergize
cell growth, combination with enzalutamide (CWR22Rv1 cells [2]): significantly inhibited
cell growth, niclosamide analog alone (CWR22Rv1 cells [2]): None of Compounds 1, 7, 30, 31, or 34 alone were able to inhibit
AR expression (AR): inhibited
cell proliferation, combination with enzalutamide (MDV) (C4-2B MDVR cells; C4-2B MDVR, 0.5 μM + enzalutamide, 48 hours, FIG. 7B): further inhibited
synergy with abiraterone in inhibiting cell growth (C4-2B MDVR cells): able to synergize
synergy with enzalutamide in inhibiting cell growth (C4-2B MDVR cells): able to synergize
cell proliferation, combination with enzalutamide (MDV) (CWR22Rv1 cells [1]; CWR22Rv1, 0.5 μM + enzalutamide, 48 hours, FIG. 7A): further inhibited
cell proliferation, combination with enzalutamide (MDV) (C4-2-V7 cells): further inhibited
PSA expression (PSA; compound alone, ELISA): inhibited
enzalutamide-mediated PSA inhibition (PSA; in presence of enzalutamide (MDV)): further enhanced
cell proliferation, combination with enzalutamide (MDV) (C4-2B AbiR cells): further inhibited
cell apoptosis (C4-2BMDVR cells; compound alone, analogs compared with niclosamide): further enhanced
apoptotic cell death, combination with enzalutamide (MDV) (C4-2BMDVR cells; with enzalutamide): further increased

Compound: COC(=O)COc1ccc(Cl)cc1C(=O)Nc1ccc([N+](=O)[O-])cc1Cl [Compound 34]
cell growth, combination with bicalutamide (CWR22Rv1 cells [2]; FIG. 12): not able to inhibit
cell growth, combination with enzalutamide (CWR22Rv1 cells [2]): nor the was the combination of these compounds with enzalutamide or abiraterone able to inhibit
cell growth, niclosamide analog alone (CWR22Rv1 cells [2]): Neither of Compounds 1 or 34 alone were able to inhibit; also recorded: None of Compounds 1, 7, 30, 31, or 34 alone were able to inhibit
AR expression (AR): no effect
synergy with abiraterone in inhibiting cell growth (C4-2B MDVR cells): neither Compound 1 nor Compound 34 were able to synergize
synergy with enzalutamide in inhibiting cell growth (C4-2B MDVR cells): neither Compound 1 nor Compound 34 were able to synergize
AR-V7 (AR variant) expression (AR-V7 [3]): no effect

Compound: CC(C)(C)OC(=O)COc1ccc(Cl)cc1C(=O)Nc1ccc([N+](=O)[O-])cc1Cl [Compound 35]
AR expression (AR): no effect
AR-V7 (AR variant) expression (AR-V7 [3]): no effect

Compound: C[C@]12CC[C@H](O)CC1=CC[C@@H]1[C@@H]2CC[C@]2(C)C(c3cccnc3)=CC[C@@H]12 [abiraterone, reference compound]
cell growth (C4-2B MDVR cells; C4-2B MDVR, 48 hours): did not inhibit
cell growth (CWR22Rv1 cells [1]): did not inhibit

Compound: CNC(=O)c1ccc(N2C(=S)N(c3ccc(C#N)c(C(F)(F)F)c3)C(=O)C2(C)C)cc1F [enzalutamide, reference compound]
cell growth, antiandrogen alone (CWR22Rv1 cells [2]; CWR22Rv1, enzalutamide 20 μM or abiraterone 5 μM, 0, 3, 5 days, FIG. 9): resistant
cell growth (C4-2B MDVR cells; C4-2B MDVR, 48 hours): did not inhibit
cell growth (CWR22Rv1 cells [1]): did not inhibit
